Assay results reported in patent US20060116325A1, “Methods and compositions for inhibiting hiv-coreceptor interactions” (priority 2001, published 2006).

Legend:
CXCR4 = CXCR4 (Homo sapiens, UniProt P61073); assay: Binding of anti-CXCR4 antibody 12G5 to CEMx174 cells (flow cytometry); parameters: host or cells: CEMx174 (174xCEM); conditions: for inhibition of 12G5 antibody binding to CXCR4: CEMx174 cells, preincubation 60 min 22° C., FIG. 5
Experimental: FIG. 5A. Dose dependent effect of peptide 15K in comparison with SDF-1α. FIG. 5B. The comparison of the effects of 15K and 15D. FIG. 5C. The comparison of the effects of 15K and 15KS. Cells were preincubated at 22° C. with peptides at designated concentrations of SDF-1α for 60 min. Then cells were incubated with FITC-labeled anti-human CXCR4 monoclonal antibodies 12G5 for 40 min at 22° C. and washed with FACS buffer prior to flow cytometry.
CEMx174 cells were pelleted and resuspended at 10^6 cells/ml in PBS containing 1% BSA and 0.1% sodium azide (FACS buffer). Cells were then preincubated with designated concentrations of peptides or SDF-1-α (1 μg/ml) at 22° C. for 60 min. FITC-labeled anti-human CXCR4 antibody (clone 12G5, BD PharMingen, San Diego, Calif.) was added to the cells per the manufactures instructions and further incubated at 22° C. for 40 minutes. Cells were extensively washed with FACS buffer and analyzed using a FACS Calibur flowcytometer (Becton Dickinson). HEK/CCR5 cells were suspended in Dulbecco's PBS containing 1% FCS and 0.05% NaN3 (10^4 cells in 100 μl) and incubated with or without 5 μg of MIP-1β (PeproTech, Rocky Hill, N.J.), 0.1 mM peptide 15D or 15K for 45 min at 22° C. Cells were then treated with FITC-conjugated anti-human CCR5 antibody (2D7; BD PharMingen, San Diego, Calif.), and incubated for 30 min at 22° C. Cells were washed twice, and analyzed using a FACScan flow cytometer (Becton Dickinson Immunocytometry Systems, San Jose, Calif.).
To determine if peptides 15D and 15K interact directly with chemokine receptors the effect of these and control peptides on the binding of anti-chemokine receptor antibodies to CXCR4 and CCR5 was studied. The monoclonal antibody 12G5 recognizes a conformational extracellular epitope on CXCR4. This antibody blocks the infectivity of some X4 strains of HIV-1 and HIV-2 (Endres et al., Cell 87:745-756, 1996; Hoxie et al., J. Reprod. Immunol. 41:197-211(1998); McKnight et al., J. Virol. 74:1692-1696(1997), 19, 26). […] Further, the binding of 12G5 to CXCR4 receptor-expressing cells is prevented by anti-HIV compounds. […] 73:2752-2761, 1999. To determine the importance of the particular amino acid sequence of the inhibitory activity of the peptides. The effects of peptide 15K and the corresponding scrambled peptide 15KS on binding of 12G5 to CXCR4 was compared. […] Apparently there is a direct correlation between the ability of 15K to inhibit the anti-CXCR4 antibody binding and its ability to inhibit HIV-1 infectivity since the scrambled peptide 15KS with the same amino acid comparison has reduced ability to manifest both these activities.

CCR5 = CCR5 (Homo sapiens, UniProt P51681); assay: Competition with 125I-MIP-1β binding to HEK-CCR5 cells; parameters: expressed in transfected cells; host or cells: HEK-293; conditions: high concentrations (e.g., 100 μM) of peptide required, FIG. 1
Experimental: Binding assays were performed with HEK-CCR5 or HEK CXCR4 in triplicate by adding unlabeled competitor (anti-coreceptor binding peptide or control chemokine) and radiolabeled chemokine, 0.2 ng/ml (^125I-MIP-1β or SDF-1α, specific activity 2000 Ci/mmol, NEN Life Science Products) to a cell suspension (4×10^5 cells in 200 μl) in RPMI 1640 supplemented with 1% bovine serum albumin and 25 mM HEPES pH 8.0 (binding medium). Cells were then incubated at 22° C. for 40 min with continuous rotation. After incubation cells were transferred to the tubes containing 800 μl of 10% sucrose in PBS and harvested by centrifugation. The supernatant was aspirated and the cell-associated radioactivity was measured using a 1272 Wallac gamma counter. […] After incubation cells were transferred to the tubes containing 800 μl of 10% sucrose in PBS and harvested by centrifugation, the supematant was aspirated and the cell-associated radioactivity was measured using a 1272 Wallac gamma counter. The data were analyzed by nonlinear regression using the computer program GraphPad Prizm 3.0.
Considering that the 15K and 15D peptides were designed in part based on their structural similarity to corresponding chemokine fragments, the binding activity of these peptides for CCR5 and/or CXCR4 receptors, and corresponding anti-coreceptor binding activity against chemokines, was assessed.

CXCR4, sequence (P61073 whole entry): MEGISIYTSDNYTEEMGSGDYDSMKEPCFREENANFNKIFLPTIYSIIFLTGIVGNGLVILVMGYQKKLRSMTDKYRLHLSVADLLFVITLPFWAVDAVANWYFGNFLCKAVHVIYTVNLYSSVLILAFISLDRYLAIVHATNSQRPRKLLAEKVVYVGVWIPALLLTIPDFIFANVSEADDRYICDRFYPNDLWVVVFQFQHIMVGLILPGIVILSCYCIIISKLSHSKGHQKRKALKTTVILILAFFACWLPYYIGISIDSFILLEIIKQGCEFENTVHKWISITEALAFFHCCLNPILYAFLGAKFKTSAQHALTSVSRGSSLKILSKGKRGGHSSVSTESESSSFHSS
CCR5, sequence (P51681 whole entry): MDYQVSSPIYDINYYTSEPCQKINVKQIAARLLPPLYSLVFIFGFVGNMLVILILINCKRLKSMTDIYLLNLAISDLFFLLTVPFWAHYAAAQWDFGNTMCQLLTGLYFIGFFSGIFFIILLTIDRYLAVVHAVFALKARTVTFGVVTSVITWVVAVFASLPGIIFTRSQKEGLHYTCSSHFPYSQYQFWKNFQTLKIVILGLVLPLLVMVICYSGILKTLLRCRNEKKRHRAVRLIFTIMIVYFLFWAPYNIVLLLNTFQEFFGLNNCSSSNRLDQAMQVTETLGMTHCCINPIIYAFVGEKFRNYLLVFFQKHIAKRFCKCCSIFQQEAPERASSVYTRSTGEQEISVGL

Row | Substance | inhibition of 12G5 antibody binding to CXCR4 (CXCR4) | inhibition of radiolabeled MIP-1β binding to cells expressing CCR5 (CCR5) | inhibition of 12G5 antibody binding compared with SDF-1α (CXCR4; peptide at 50 μg/ml versus SDF-1α, FIG. 5A)
1 | I R K A H C N I S R A D W N D [Peptide 15D] | less effective | significantly inhibit chemokine binding | –
2 | IRKAHCNISRAKWND [Peptide 15K] | inhibited the binding of the 12G5 antibody to CXCR4 in a dose-dependent manner | significantly inhibit chemokine binding | approached the efficacy of SDF-1α
